US12358880B2, “1,4-bis-(2-hydroxy-benzyl)-1,4,7-triazacyclononane derivatives and similar compounds as ligands in iron(III) complexes for use as MRI contrast agents” (BRACCO IMAGING S.P.A., priority 2022, dated 2025)
Read-outs that look alike come from different tables or passages of the source. Marks after values point to notes of the source that are not given here.

How the values were obtained:
[1] = 0.15M NaNO3; from Baranyai et al., Chem. Sci. 2021; cited from earlier work
[2] = Protonation constants of the Fe(III) complexes (pH-potentiometry / UV spectrophotometry); assay type: physicochemical
Description: The protonation constants (KMHiLigand=[MHiLigand]/([MHi-1Ligand]×[H^+])) of the Fe(III) complexes of Compound 2, of Compound 4, of NOTA (comparative), and of HBED (comparative) were determined by pH-potentiometric and/or by spectrophotometric studies.
In particular, the protonation constants of the Fe(NOTA) and Fe(HBED) complexes were determined using pH-potentiometry by titrating the pre-prepared complexes from pH=1.7 to pH=12.0 with 0.2 M NaOH([FeL]=0.002 M). For the pH measurements and titrations, Metrohm 888 Titrando titration workstation Metrohm-6.0234.110 combined electrode was used. Equilibrium measurements were carried out at a constant ionic strength (0.15 M NaNO3 or NaClO4) in 6 ml samples at 25° C. The solutions were stirred, and N2 was bubbled through them. The titrations were made in the pH range of 1.7-12.0. KH-phthalate (pH=4.005) and borax (pH=9.177) buffers were used to calibrate the pH meter. For the calculation of [H^+] from the measured pH values, the method disclosed in Irving et al. Anal. Chim. Acta, 1967, 38, 475-488 was used as follows: a 0.01M HNO3 or HClO4 solution was titrated with a standardized NaOH solution at 0.15 M NaNO3 ionic strength. The differences (A) between the measured (pHread) and calculated pH (−log [H^+]) values were used to obtain the equilibrium H^+ concentration from the pH values measured in the titration experiments (A=0.02 for 0.15 M NaNO3, 0.01 for 0.15 M NaClO4). For the equilibrium calculations, the stoichiometric water ionic product (pKw) was also needed to calculate [OH^−] values under basic conditions. The VNaOH-pHread data pairs of the HNO3—NaOH titration obtained in the pH range 10.5-12.0 were used to calculate the pKw value (pKw=13.76).
The protonation constants of Fe(Compound 2) and Fe(Compound 4) complexes were determined by UV spectrophotometry analysis in the wavelength range of 210-700 nm ([Fe(Compound 2)]=43 μM, [Fe(Compound 4)]=100 μM, 0.15 M NaClO4, 25° C.) according to the method disclosed in Example 11A above.

[3] = 60 MHZ, 40° C. in PBS buffer; cited from earlier work
[4] = Kinetic inertness: transchelation reactions with excess HBED as exchanging ligand; assay type: physicochemical
Description: To obtain data relating to the kinetic inertness of Fe(Compound 2), Fe(Compound 4) and Fe(NOTA) (comparative), the transchelation reactions (schematized below) were investigated by VIS-spectrophotometry (for Fe(Compound 4) and Fe(NOTA), comparative) and by Capillary Zone Electrophoresis (CZE) (for Fe(Compound 2)) in the presence of a large excess of HBED as an exchanging ligand (Fe(Compound 2): [Fe(Compound 2)]=87 μM, [HBED]=0.1 and 0.2 M, 1.0 M NaClO4, 25° C.; Fe(Compound 4): [Fe(Compound 4)]=100 μM, [HBED]=0.002 and 0.02 M, 0.15 M NaNO3, 25° C. Fe(NOTA): [Fe(NOTA)]=0.2 mM, [HBED]=2.0 and 4.0 mM, 0.15 M NaNO3, 25° C.) in order to guarantee the pseudo-first order kinetic conditions. FeL+HBED ? Fe(HBED)+L with L=Compound 2, Compound 4 or NOTA. A) Determination of Kinetic Inertness of Fe(III) Complexes
The transchelation reactions of Fe(Compound 4) and Fe(NOTA) (comparative) were studied by spectrophotometry, following the formation of the resulting Fe(HBED) complex at 472 and 470 nm with PerkinElmer Lambda 365 UV-Vis spectrophotometer. The concentration of the Fe(Compound 4) and Fe(NOTA) complex was 0.1 and 0.2 mM, while the concentration of the HBED was 10-200 times higher, in order to guarantee pseudo-first-order conditions. The temperature was maintained at 25° C. and the ionic strength of the solutions was kept constant, 0.15 M for NaNO3. The exchange rates were studied in the pH range about 9.5-14.0. Buffer was not used since the excess of HBED was able to maintain the constant pH values at pH<12. […] The pseudo-first-order rate constants (kd) were calculated by fitting of the absorbance—time data pairs to Equation 2.
[formula] where At, A0 and Ap are the absorbance values at time t, the start of the reaction and at equilibrium, respectively. […] The pseudo-first-order rate constants (kd) were calculated by fitting the area-time data pairs to Equation 2 above, where At, A0 and Ap are the area values at time t, the start of the reaction and at equilibrium, respectively. […]

[5] = for pFe (−log [Fe^3+]free, conditional stability): 10 µM, pH 7.4
Description: (§1) To assess the thermodynamic stability of the Fe(III) complexes of the invention, as well as of comparative ones, the protonation constants of the respective ligands first, and then of the Fe(III) complexes, were determined by pH-potentiometry and/or by UV spectrophotometry. Finally, based on the protonation constants, the thermodynamic stability constant of the Fe(III) complexes of the invention were determined by observing the competition reaction between the Fe(III) complexes and the N,N′-bis(2-hydroxybenzyl)ethylenediamine-N,N′-diacetic acid (HBED) ligand using capillary zone electrophoresis (CZE) for Compound 2 and Vis spectrophotometry for Compound 4.
(§2) The thermodynamic stability constants (KMLigand=([MLigand]/([M]×[Ligand])) of the Fe(III) complexes were determined as follows.
(§3) The stability constant of the Fe(NOTA) complex was determined by spectrophotometry studies of the Fe^3+-NOTA system at the absorption band of Fe^III complexes at [H^+]=0.01-3.0 M in the wavelength range of 350-800 nm. The concentrations of Fe^3+ and NOTA were 0.002 M. The H^+ concentration in the samples was adjusted with the addition of calculated amounts of a 6 M solution of HNO3 (I=[Na^+]+[H^+]=0.15, [H^+]≤0.15 M). The samples were kept at 25° C. for two weeks.
(§4) The absorbance values of the samples were determined at 11 wavelengths (370, 380, 390, 395, 400, 405, 410, 415, 420, 425 and 430 nm). For the calculations of the thermodynamic stability constant of the Fe(NOTA), the molar absorptivities of Fe^3+ and Fe(NOTA) were determined by recording the spectra of 1.0×10^−3, 1.5×10^−3, 2.0×10^−3 and 2.5×10^−3 M solutions of Fe^3+ and Fe(NOTA) solutions. The absorption spectra of the Fe(NOTA) solutions were recorded in the pH range of 1.7-7.5. All spectrophotometric measurements were performed at 25° C. in 0.15 M NaNO3 solution. The pH was adjusted by stepwise addition of concentrated NaOH or HNO3 solutions.
(§5) The stability constants of the Fe(HBED) complex was determined by following the competition reaction between HBED and NOTA ligands for Fe^3+-ion with spectrophotometry at the absorption band of Fe(HBED) complex in the wavelength range of 400-700 nm. […] The time needed to reach the equilibria was determined by spectrophotometry. The absorbance values of the samples were determined at the absorption band of the Fe(HBED) complex ([Fe(HBED)]-species predominates at pH=5.0). For the calculations of the thermodynamic stability constants of the Fe(HBED) complexes, the molar absorptivities of [Fe(HBED)]-species were determined by recording the spectra of 0.5, 0.1 and 0.2 mM solutions of [Fe(HBED)]^− at pH=5 in the presence of 0.15 M NaNO3. […] The thermodynamic stability constants were calculated with the PSEQUAD program. […]

[6] = Thermodynamic stability of the Fe(III) complexes (competition with HBED/NOTA, CZE or spectrophotometry); settings: Spectrophotometry, 0.15M NaNO3, 25° C.
Description: as §1, §2, §3, §4, §5

[7] = pH-potentiometry, 0.15M NaNO3, 25° C.
[8] = 0.15M NaNO3, 25° C., spectrophotometry
[9] = Spectrophotometry, 0.15M NaClO4, 25° C.

For O=C(O)CN(CC(=O)O)C1CCCCC1N(CC(=O)O)CC(=O)O (stereo not drawn) [CDTA, trans-cyclohexane diamine tetraacetic acid], which “kd (s^−1) at pH = 7.4 (dissociation rate constant)” value (shortened to “kd”) [1] is on record?
The value was 2.1 × 10^−9 s^−1.

Which results are given for O=C(O)CN(CCN(CC(=O)O)Cc1ccccc1O)Cc1ccccc1O [HBED, N,N′-bis(2-hydroxybenzyl)ethylenediamine-N,N′-diacetic acid, reference compound]?
FeHL (protonation constant of the Fe(III) complex) [2, 7]: 1.87 (4); FeLH−1 (protonation constant of the Fe(III) complex) [2, 7]: 12.3 (1); r1 of Fe(III) complex [3]: 0.49 mM⁻¹ s⁻¹

Which “FeLH−1 (protonation constant of the Fe(III) complex)” value [2, 7] does the source give for O=C(O)CN1CCN(CC(=O)O)CCN(CC(=O)O)CC1 [NOTA, reference compound] here?
Its value is 9.12 (4).

What about the “kd” value [4, 8] of the same compound?
Its value is 4.0 × 10^−9 s^−1.

With Cc1cc(CNC(CO)CO)c(O)c(CN2CCNCCN(Cc3cc(C)cc(CNC(CO)CO)c3O)CC2)c1 [Compound 4, 2,2′-{1,4,7-triazonane-1,4-diylbis[methylene(2-hydroxy-5-methyl-3,1-phenylene)methyleneazanediyl]}di(propane-1,3-diol)] as the compound, how does the “FeH2L (protonation constant of the Fe(III) complex)” value [2, 9] read?
The value was 6.02 (1)^b.

And the “FeHL (protonation constant of the Fe(III) complex)” value [2, 9]?
The value was 8.82 (1)^b.

What about the “FeLH−1 (protonation constant of the Fe(III) complex)” value [2, 9] of the same compound?
The value was 10.12 (1)^b.

What about the “kd” value [4, 8] of the same compound?
Its value is 3.4 × 10^−8 s^−1.

What about the “pFe (−log [Fe^3+]free, conditional stability)” value [5] of the same compound?
The value was 26.5.

Which “FeL (thermodynamic stability constant, log KFeL)” value [6] does the source give for O=C([O-])CN(CCN(CC(=O)[O-])Cc1ccccc1[O-])Cc1ccccc1[O-].[Fe+3] [Fe(HBED)] here?
The value was 40.2.

Which “kd” value [1] does the source give for O=C(O)CN(CCN(CC(=O)O)CC(=O)O)CC(=O)O [EDTA] here?
Its value is 2.9 × 10^−6 s^−1.

Which “FeH2L (protonation constant of the Fe(III) complex)” value [2, 9] does the source give for Cc1cc(CNC(CO)CO)c(O)c(CN2CCN(Cc3cc(C)cc(CNC(CO)CO)c3O)CCN(Cc3cc(C)cc(CNC(CO)CO)c3O)CC2)c1 [Compound 2, 2,2′,2″-{1,4,7-triazonane-1,4,7-triyltris[methylene(2-hydroxy-5-methyl-3,1-phenylene)methyleneazanediyl]}tri(propane-1,3-diol)] here?
Its value is 9.47 (1)^b.

What about the “FeH3L (protonation constant of the Fe(III) complex)” value [2, 9] of the same compound?
Its value is 7.82 (5)^b.

What about the “FeHL (protonation constant of the Fe(III) complex)” value [2, 9] of the same compound?
The value was 10.53 (4)^b.

What about the “kd” value ([4]; 1.0M NaClO4, 25° C., CZE, extrapolated from data at pH>9.0) of the same compound?
Its value is 1.9 × 10^−9 s^−1.

What about the “pFe (−log [Fe^3+]free, conditional stability)” value [5] of the same compound?
The value was 32.4.

What about the “FeL (thermodynamic stability constant, log KFeL)” value ([5]; 4 weeks, 87 µM, pH 11) of the same compound?
Its value is 44.0 (3).
